Results from PMC5398486, “Cheminformatics-aided discovery of small-molecule Protein-Protein Interaction (PPI) dual inhibitors of Tumor Necrosis Factor (TNF) and Receptor Activator of NF-κB Ligand (RANKL)” (PLoS Computational Biology, 2017).
Read-outs that look alike come from different tables or passages of the source.

Assays:
[1] = Measurement of cytotoxicity in L929 cells (crystal violet); assay type: cell-based; conditions: mouse, compound alone, read-out: L929 LC50
Method: L929 cells were seeded onto a 96-well plate (3x10^4 cells/well). After 24 h, cells were treated with the compounds at increasing concentrations. DMSO was used in the untreated control. The next day, a PBS-washing step was performed to remove dead cells. The remaining live cells were next fixed with methanol and stained with crystal violet. After solubilization with acetic acid, staining was quantified spectrophotometrically at 570 nm. Survival is expressed with respect to the untreated control. Experiments were performed in triplicate.

[2] = biological target: T1, TNF (Homo sapiens, UniProt P01375); test: Fluorescence-based binding affinity assay, TNF; parameters: made in house; conditions: for 'n' value from Scatchard plot (ligand binding sites per protein molecule): TNF, binding assay raw data
Method: For use in the binding assays, recombinant TNF and RANKL were expressed and purified as previously described.[84–86] Fluorescence intensity was measure with a Synergy H1 Multi-Mode Reader (BioTek) in 96-well microplates (black) at 25°C. […] During preparation of the solutions the buffer was firstly added to all wells followed by the ligand solution and finally the protein was added. All solutions were mixed by pipetting and equilibrated for 1h at 25°C before measurement. […] Experiments were performed for TNF in 10 mM citrate-phosphate (pH 6.5) and for RANKL in 25 mM Tris–HCl buffer, 100 mM NaCl (pH 7.5); both buffers were supplemented with PEG3350 at the concentrations indicated in the respective figures. Kd values were calculated as mean ± SEM from three independent experiments.
Differences in fluorescence intensity between the protein/ligand complex and free protein (or free ligand) were analysed as previously described in [Papaneophytou et al. (2013) ACS Med Chem Lett. 4: 137-141] (Eq. S6) in order to determine the dissociation constant (Kd) of the various protein-ligand systems.
In Eq. (S6) Fobs is the observed fluorescence intensity; FBG is the fluorescence background signal; MFLF [picture] and PF are the molar fluorescence and concentration of free protein, respectively; FR is the fluorescence ratio of bound protein (or bound ligand in the case of a fluorescence ligand); LT and PT are the total concentrations of ligand and protein, respectively. A detailed analysis of the development of the fluorescence ligand-binding assay is given in [Papaneophytou et al. (2013) ACS Med Chem Lett. 4: 137-141].

[3] = biological target: T1, TNF; test: Cross-linking experiments, TNF trimer formation; assay type: biochemical; parameters: purchased PeproTech; conditions: molar ratio of 4:1 relative to TNF, BS3 cross-linking
Method: (§1) 100 ng of recombinant human TNF or RANKL (Peprotech) were incubated with the inhibitors for 30 min at room temperature and then subjected to cross-linking, using 4.8 mM BS3 (ThermoFisher Scientific) for 30 min at room temperature. The reaction was stopped by adding 1/10th volume of 1 M Tris-HCl, pH 7.5. Samples were then subjected to SDS-PAGE and western blotting using an anti human-TNF or RANKL antibody (both R&D Systems).
(§2) Human TNF or RANKL was incubated with T8 or T23, chemically cross-linked, and subjected to SDS-PAGE. This was followed by western blotting to detect the various TNF and RANKL multimers. Both inhibitors were used at a molar ratio of 4:1 relative to TNF and 1:1 relative to RANKL. Numbers indicate molecular weights in kDa; NC = non cross-linked control (no inhibitor, no cross-linking); CC = cross-linked control (no inhibitor).

[4] = biological target: T2, human RANKL (Homo sapiens, UniProt O14788); test: Cross-linking experiments, RANKL trimer formation; assay type: biochemical; conditions: molar ratio of 1:1 relative to RANKL, BS3 cross-linking
T2 construct: purchased Peprotech
T2 sequence (O14788 143-317 limits assumed): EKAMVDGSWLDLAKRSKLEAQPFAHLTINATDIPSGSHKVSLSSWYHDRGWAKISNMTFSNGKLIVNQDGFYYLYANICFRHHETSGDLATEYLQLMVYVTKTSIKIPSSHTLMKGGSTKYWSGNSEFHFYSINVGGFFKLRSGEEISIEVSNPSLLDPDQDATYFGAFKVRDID
Method: as §1, §2

[5] = biological target: T3, human RANKL (Homo sapiens, UniProt O14788); test: RANKL-induced osteoclastogenesis / osteoclastic (TRAP) activity assay in bone marrow cells; assay type: cell-based; conditions: 50 ng/ml human RANKL + 25 ng/ml M-CSF, read-out: IC50 (RANKL complexes, TRAP activity)
T3 sequence (O14788 140-317 limits assumed): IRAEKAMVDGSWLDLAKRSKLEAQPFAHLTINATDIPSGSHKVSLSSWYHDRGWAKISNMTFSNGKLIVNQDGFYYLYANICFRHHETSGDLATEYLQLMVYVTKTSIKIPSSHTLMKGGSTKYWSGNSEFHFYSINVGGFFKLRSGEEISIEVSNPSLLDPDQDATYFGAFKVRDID
Method: To visualize osteoclasts, cell cultures were stained with TRAP (tartrate-resistant acid phosphatase), using an acid phosphatase leukocyte (TRAP) kit (Sigma-Aldrich). Osteoclasts were identified as TRAP-positive multinucleated cells containing more than three nuclei.
To measure osteoclast activity, bone marrow cells were cultured for four days as described above and lysed with 0.2% Triton X-100. TRAP activity was measured by the conversion of p-nitrophenyl phosphate to p-nitrophenol in the presence of sodium tartrate. Thus, cell lysates were incubated with 5.5 mM phosphatase substrate diluted in 100 mM citrate buffer and 10 mM sodium tartrate, for 40 minutes at 37°C. The reaction was stopped by addition of 0.4 N sodium hydroxide and absorbance was measured at 405 nm using a microplate reader (Molecular Devices). TRAP activity was normalized to total protein content as determined by the Bradford assay (Bio-Rad protein assay). TRAP activity per μg of total protein was expressed as a percentage of the positive control treated without compounds. IC50 values were calculated as mean ± SEM from three independent experiments performed in duplicate.

[6] = biological target: T1, TNF; test: TNF-induced death assay in L929 cells; assay type: cell-based; parameters: purchased PeproTech; conditions: 0.25 ng/mL human TNF + 2 μg/mL actinomycin D, approx. 24 h, read-out: L929 IC50 (inhibition of TNF-induced death)
Method: L929 cells were cultured on 96-well plates (3×10^4 cells/well) overnight. Then, 0.25 ng/mL human TNF (PeproTech) and 2 μg/mL actinomycin D (Sigma–Aldrich) were added. TNF with the compounds were pre-incubated for 30 min at room temperature before adding them to cells to assess inhibition. Background death was estimated using an actinomycin D treated-only control. After approximately 24 h, dead cells were cleared away by washing with PBS. The remaining live cells were then fixed with methanol and stained with crystal violet. After solubilization with acetic acid, staining was quantified spectrophotometrically at 570 nm. Cytotoxicity is expressed with respect to the background death control and also relative to the toxicity of compounds. Experiments were repeated three times.
Biological screening of the compounds examined their capacity to block TNF function in a modified TNF bioactivity assay.[91] The basis of this test is the death-inducing function of TNF in the murine fibrosarcoma cell line L929 following sensitization by the transcription inhibitor actinomycin D. Functional potency of the compounds would translate in a significant reduction of TNF-induced death. Using this approach, out of the nine shortlisted small molecules, two compounds (T8 and T23) were selected as follows. […]

[7] = TNF 0.75 μM, PEG3350 2.5%, 10 mM Citrate-phosphate buffer pH 6.5, read-out: Binding affinity (Kd), TNF
[8] = TNF 0.75 μM, PEG3350 5%, 10 mM Citrate-phosphate buffer pH 6.5, read-out: Binding affinity (Kd), TNF
[9] = TNF 1.5 μM, PEG3350 5%, 10 mM Citrate-phosphate buffer pH 6.5, read-out: Binding affinity (Kd), TNF
[10] = TNF 2.5 μM, PEG3350 5%, 10 mM Citrate-phosphate buffer pH 6.5, read-out: Binding affinity (Kd), TNF
[11] = fluorescence assay, 25°C, citrate-phosphate buffer, 5% PEG3350, read-out: Kd (TNF complexes)

T1 sequence (P01375 77-233 limits assumed): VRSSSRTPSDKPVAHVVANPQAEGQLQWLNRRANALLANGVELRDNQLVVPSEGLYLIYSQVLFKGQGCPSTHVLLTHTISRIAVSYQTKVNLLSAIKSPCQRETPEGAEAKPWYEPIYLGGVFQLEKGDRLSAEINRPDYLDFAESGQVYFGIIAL

| Compound | CC50 at 1 day [1] [µM] | Kd ([2]; TNF 0.75 μM, PEG3350 0%, 10 mM Citrate-phosphate buffer pH 6.5, read-out: Binding affinity (Kd), TNF) [µM] | Kd [2, 7] [µM] | Kd [2, 8] [µM] | Kd [2, 9] [µM] | Kd [2, 10] [µM] | 'n' value from Scatchard plot (ligand binding sites per protein molecule) [2] | Kd [2, 11] [µM] | formation of TNF trimers (cross-linking, western blot) [3] | formation of RANKL trimers (cross-linking, western blot) [4] | IC50 [5] [µM] | IC50 [6] [µM] |
| --- | --- | --- | --- | --- | --- | --- | --- | --- | --- | --- | --- | --- |
| COc1cc(OC(C)=O)c(-c2cc(OC(C)=O)c(OC)cc2OC(C)=O)cc1OC(C)=O [Compound T23, [4-acetyloxy-2-(2,5-diacetyloxy-4-methoxyphenyl)-5-methoxyphenyl] acetate] | > 100 | 2.53 ± 0.23 | 3.02 ± 0.31 | 2.8 ± 0.19 | 2.63 ± 0.25 | 2.98 ± 0.47 | 1 | 2.8 ± 0.2 | obstruct the formation of active TNF and RANKL trimers | obstruct the formation of active TNF and RANKL trimers | 2.6 ± 0.2 | 17 ± 1.2 |
| O=C(NNC(=NS(=O)(=O)c1ccc(-n2nc(C(F)(F)F)cc2-c2cccs2)cc1)N1CCCC1)c1ccc(Cl)cc1 [Compound T8, N-[(4-chlorobenzoyl)amino]-N'-[4-[5-thiophen-2-yl-3-(trifluoromethyl)pyrazol-1-yl]phenyl]sulfonylpyrrolidine-1-carboximidamide] | > 100 | – | 9.55 ± 0.81 | 8.78 ± 0.76 | 9.02 ± 0.88 | 9.17 ± 0.88 | 1 | 8.8 ± 0.8 | obstruct the formation of active TNF and RANKL trimers | obstruct the formation of active TNF and RANKL trimers | 9 ± 0.7 | 40 ± 2.3 |
